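Growth conditions: 96-well plates. Treatment: test compound, 48 hours, 5 concentrations. Analysis: linear interpolation between bracketing concentrations; unreached endpoints set to highest concentration. TGI marks complete inhibition of growth.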
What was measured:
Assay in all cases: NCI tumour cell line growth inhibition, 48 h
786-0 renal = test system: 786-0 renal
A498 renal = test system: A498 renal
A549 NSCLC = test system: A549 NSCLC
ACHN renal = test system: ACHN renal
CAKI-1 renal = test system: CAKI-1 renal
CCRF-CEM leukemia = test system: CCRF-CEM leukemia
COLO 205 colon = test system: COLO 205 colon
DLD-1 colon = test system: DLD-1 colon
DMS 114 small cell lung = test system: DMS 114 small cell lung
DMS 273 small cell lung = test system: DMS 273 small cell lung
EKVX NSCLC = test system: EKVX NSCLC
HCC-2998 colon = test system: HCC-2998 colon
HCT-116 colon = test system: HCT-116 colon
HCT-15 colon = test system: HCT-15 colon
HL-60(TB) leukemia = test system: HL-60(TB) leukemia
HOP-18 NSCLC = test system: HOP-18 NSCLC
HOP-62 NSCLC = test system: HOP-62 NSCLC
HOP-92 NSCLC = test system: HOP-92 NSCLC
HT29 colon = test system: HT29 colon
IGROV1 ovarian = test system: IGROV1 ovarian
K-562 leukemia = test system: K-562 leukemia
KM12 colon = test system: KM12 colon
LOX IMVI melanoma = test system: LOX IMVI melanoma
M14 melanoma = test system: M14 melanoma
M19-MEL melanoma = test system: M19-MEL melanoma
MALME-3M melanoma = test system: MALME-3M melanoma
MOLT-4 leukemia = test system: MOLT-4 leukemia
NCI-H226 lung = test system: NCI-H226 lung
NCI-H23 lung = test system: NCI-H23 lung
NCI-H460 lung = test system: NCI-H460 lung
OVCAR-3 ovarian = test system: OVCAR-3 ovarian
OVCAR-4 ovarian = test system: OVCAR-4 ovarian
OVCAR-5 ovarian = test system: OVCAR-5 ovarian
OVCAR-8 ovarian = test system: OVCAR-8 ovarian
RXF 393 renal = test system: RXF 393 renal
SF-268 CNS = test system: SF-268 CNS
SF-295 CNS = test system: SF-295 CNS
SF-539 CNS = test system: SF-539 CNS
SK-MEL-2 melanoma = test system: SK-MEL-2 melanoma
SK-MEL-28 melanoma = test system: SK-MEL-28 melanoma
SK-MEL-5 melanoma = test system: SK-MEL-5 melanoma
SK-OV-3 ovarian = test system: SK-OV-3 ovarian
SN12C renal = test system: SN12C renal
SNB-19 CNS = test system: SNB-19 CNS
SNB-75 CNS = test system: SNB-75 CNS
SNB-78 CNS = test system: SNB-78 CNS
SW-620 colon = test system: SW-620 colon
TK-10 renal = test system: TK-10 renal
U251 CNS = test system: U251 CNS
UACC-257 melanoma = test system: UACC-257 melanoma
UACC-62 melanoma = test system: UACC-62 melanoma
UO-31 renal = test system: UO-31 renal
KM20L2 colon = test system: KM20L2 colon
LXFL 529 NSCLC = test system: LXFL 529 NSCLC
NCI-H522 lung = test system: NCI-H522 lung
SR leukemia = test system: SR leukemia
XF 498 CNS = test system: XF 498 CNS
RPMI-8226 leukemia = test system: RPMI-8226 leukemia

COc1cccc(C2SCc3nc4ccccc4n32)c1 (centres undefined)
TGI (786-0 renal): > 100 µM
TGI (A498 renal): > 100 µM
TGI (A549 NSCLC): > 100 µM
TGI (ACHN renal): > 100 µM
TGI (CAKI-1 renal): > 100 µM
TGI (CCRF-CEM leukemia): > 100 µM
TGI (COLO 205 colon): > 100 µM
TGI (DLD-1 colon): > 100 µM
TGI (DMS 114 small cell lung): > 100 µM
TGI (DMS 273 small cell lung): > 100 µM
TGI (EKVX NSCLC): > 100 µM
TGI (HCC-2998 colon): > 100 µM
TGI (HCT-116 colon): > 100 µM
TGI (HCT-15 colon): > 100 µM
TGI (HL-60(TB) leukemia): > 100 µM
TGI (HOP-18 NSCLC): > 100 µM
TGI (HOP-62 NSCLC): > 100 µM
TGI (HOP-92 NSCLC): 69.8 µM
TGI (HT29 colon): > 100 µM
TGI (IGROV1 ovarian): > 100 µM
TGI (K-562 leukemia): > 100 µM
TGI (KM12 colon): > 100 µM
TGI (LOX IMVI melanoma): > 100 µM
TGI (M14 melanoma): > 100 µM
TGI (M19-MEL melanoma): > 100 µM
TGI (MALME-3M melanoma): > 100 µM
TGI (MOLT-4 leukemia): > 100 µM
TGI (NCI-H226 lung): > 100 µM
TGI (NCI-H23 lung): > 100 µM
TGI (NCI-H460 lung): > 100 µM
TGI (OVCAR-3 ovarian): > 100 µM
TGI (OVCAR-4 ovarian): > 100 µM
TGI (OVCAR-5 ovarian): > 100 µM
TGI (OVCAR-8 ovarian): > 100 µM
TGI (RXF 393 renal): > 100 µM
TGI (SF-268 CNS): > 100 µM
TGI (SF-295 CNS): > 100 µM
TGI (SF-539 CNS): > 100 µM
TGI (SK-MEL-2 melanoma): > 100 µM
TGI (SK-MEL-28 melanoma): > 100 µM
TGI (SK-MEL-5 melanoma): 65.7 µM
TGI (SK-OV-3 ovarian): > 100 µM
TGI (SN12C renal): > 100 µM
TGI (SNB-19 CNS): > 100 µM
TGI (SNB-75 CNS): > 100 µM
TGI (SNB-78 CNS): > 100 µM
TGI (SW-620 colon): > 100 µM
TGI (TK-10 renal): 55.1 µM
TGI (U251 CNS): > 100 µM
TGI (UACC-257 melanoma): > 100 µM
TGI (UACC-62 melanoma): > 100 µM
TGI (UO-31 renal): 95.7 µM

COC(=O)C(c1ccc(OC)cc1)N1C(=O)[C@@H](NC(=O)c2ccccc2)[C@H]1[C@@H](C)O (some centres undefined)
TGI (786-0 renal): > 100 µM
TGI (A549 NSCLC): > 100 µM
TGI (ACHN renal): > 100 µM
TGI (CCRF-CEM leukemia): > 100 µM
TGI (COLO 205 colon): > 100 µM
TGI (DLD-1 colon): > 100 µM
TGI (DMS 273 small cell lung): > 100 µM
TGI (EKVX NSCLC): > 100 µM
TGI (HCC-2998 colon): > 100 µM
TGI (HCT-116 colon): > 100 µM
TGI (HCT-15 colon): > 100 µM
TGI (HL-60(TB) leukemia): > 100 µM
TGI (HOP-62 NSCLC): > 100 µM
TGI (HOP-92 NSCLC): > 100 µM
TGI (HT29 colon): > 100 µM
TGI (IGROV1 ovarian): > 100 µM
TGI (K-562 leukemia): > 100 µM
TGI (KM12 colon): > 100 µM
TGI (KM20L2 colon): > 100 µM
TGI (LOX IMVI melanoma): > 100 µM
TGI (LXFL 529 NSCLC): > 100 µM
TGI (M14 melanoma): > 100 µM
TGI (M19-MEL melanoma): > 100 µM
TGI (MALME-3M melanoma): > 100 µM
TGI (MOLT-4 leukemia): > 100 µM
TGI (NCI-H226 lung): > 100 µM
TGI (NCI-H23 lung): > 100 µM
TGI (NCI-H460 lung): > 100 µM
TGI (NCI-H522 lung): > 100 µM
TGI (OVCAR-3 ovarian): > 100 µM
TGI (OVCAR-4 ovarian): > 100 µM
TGI (OVCAR-8 ovarian): > 100 µM
TGI (RXF 393 renal): > 100 µM
TGI (SF-268 CNS): > 100 µM
TGI (SF-295 CNS): > 100 µM
TGI (SF-539 CNS): > 100 µM
TGI (SK-MEL-2 melanoma): > 100 µM
TGI (SK-MEL-28 melanoma): > 100 µM
TGI (SK-MEL-5 melanoma): > 100 µM
TGI (SK-OV-3 ovarian): > 100 µM
TGI (SN12C renal): > 100 µM
TGI (SNB-19 CNS): > 100 µM
TGI (SNB-75 CNS): > 100 µM
TGI (SNB-78 CNS): > 100 µM
TGI (SR leukemia): > 100 µM
TGI (SW-620 colon): > 100 µM
TGI (TK-10 renal): > 100 µM
TGI (U251 CNS): > 100 µM
TGI (UACC-257 melanoma): > 100 µM
TGI (UACC-62 melanoma): > 100 µM
TGI (UO-31 renal): > 100 µM
TGI (XF 498 CNS): > 100 µM

CCCCCCCCCCCCCCCCCC(=O)OCC1OC(OC)C(NC(=O)N(CCCl)N=O)C(O)C1O (centres undefined)
TGI (A549 NSCLC): 52.1 µM
TGI (ACHN renal): 47.3 µM
TGI (CAKI-1 renal): > 100 µM
TGI (COLO 205 colon): > 100 µM
TGI (DLD-1 colon): > 100 µM
TGI (DMS 273 small cell lung): 56.9 µM
TGI (HCC-2998 colon): > 100 µM
TGI (HCT-15 colon): > 100 µM
TGI (HOP-18 NSCLC): > 100 µM
TGI (HOP-62 NSCLC): > 100 µM
TGI (HT29 colon): 63.6 µM
TGI (IGROV1 ovarian): > 100 µM
TGI (K-562 leukemia): > 100 µM
TGI (KM12 colon): 67.9 µM
TGI (LOX IMVI melanoma): 31.8 µM
TGI (LXFL 529 NSCLC): 37.5 µM
TGI (M14 melanoma): > 100 µM
TGI (M19-MEL melanoma): > 100 µM
TGI (MALME-3M melanoma): 78.3 µM
TGI (MOLT-4 leukemia): 57.3 µM
TGI (NCI-H226 lung): 86.8 µM
TGI (NCI-H23 lung): 43 µM
TGI (NCI-H460 lung): 33.5 µM
TGI (NCI-H522 lung): 38.3 µM
TGI (OVCAR-3 ovarian): 65.6 µM
TGI (OVCAR-4 ovarian): 76.1 µM
TGI (OVCAR-5 ovarian): > 100 µM
TGI (OVCAR-8 ovarian): > 100 µM
TGI (RPMI-8226 leukemia): 85.8 µM
TGI (RXF 393 renal): 32.1 µM
TGI (SF-268 CNS): 26.7 µM
TGI (SF-295 CNS): 32.6 µM
TGI (SF-539 CNS): 24.2 µM
TGI (SK-MEL-2 melanoma): > 100 µM
TGI (SK-MEL-28 melanoma): 53.1 µM
TGI (SK-MEL-5 melanoma): > 100 µM
TGI (SN12C renal): 30.3 µM
TGI (SNB-19 CNS): > 100 µM
TGI (SNB-75 CNS): 41.6 µM
TGI (SNB-78 CNS): > 100 µM
TGI (SR leukemia): > 100 µM
TGI (SW-620 colon): 47.8 µM
TGI (TK-10 renal): > 100 µM
TGI (UACC-257 melanoma): 39.4 µM
TGI (UACC-62 melanoma): 23.3 µM
TGI (UO-31 renal): 56.8 µM
TGI (XF 498 CNS): 44 µM

CC(C)C(Sc1nc(-c2ccccc2)c(-c2ccccc2)[nH]1)c1n[nH]c(=S)n1-c1ccccc1 (centres undefined)
TGI (786-0 renal): > 100 µM
TGI (A498 renal): > 100 µM
TGI (A549 NSCLC): > 100 µM
TGI (ACHN renal): 79.5 µM
TGI (CCRF-CEM leukemia): 64.5 µM
TGI (COLO 205 colon): 62.1 µM
TGI (DLD-1 colon): > 100 µM
TGI (DMS 273 small cell lung): > 100 µM
TGI (EKVX NSCLC): 65.4 µM
TGI (HCC-2998 colon): 46 µM
TGI (HCT-116 colon): > 100 µM
TGI (HCT-15 colon): > 100 µM
TGI (HL-60(TB) leukemia): 47.1 µM
TGI (HOP-62 NSCLC): > 100 µM
TGI (HOP-92 NSCLC): 72 µM
TGI (HT29 colon): 70.3 µM
TGI (IGROV1 ovarian): 69.2 µM
TGI (KM12 colon): 30.5 µM
TGI (KM20L2 colon): 62.8 µM
TGI (LOX IMVI melanoma): 35.4 µM
TGI (LXFL 529 NSCLC): 54.4 µM
TGI (M14 melanoma): 38.2 µM
TGI (M19-MEL melanoma): 35.5 µM
TGI (MALME-3M melanoma): 50.9 µM
TGI (MOLT-4 leukemia): 47.5 µM
TGI (NCI-H226 lung): > 100 µM
TGI (NCI-H23 lung): 77.9 µM
TGI (NCI-H460 lung): > 100 µM
TGI (NCI-H522 lung): 43.6 µM
TGI (OVCAR-3 ovarian): 45.9 µM
TGI (OVCAR-4 ovarian): > 100 µM
TGI (OVCAR-5 ovarian): 95 µM
TGI (OVCAR-8 ovarian): > 100 µM
TGI (RPMI-8226 leukemia): 76 µM
TGI (SF-268 CNS): > 100 µM
TGI (SF-295 CNS): 57.3 µM
TGI (SF-539 CNS): 40.4 µM
TGI (SK-MEL-2 melanoma): 43 µM
TGI (SK-MEL-28 melanoma): 70.2 µM
TGI (SK-MEL-5 melanoma): 31.5 µM
TGI (SK-OV-3 ovarian): > 100 µM
TGI (SN12C renal): > 100 µM
TGI (SNB-19 CNS): 56.8 µM
TGI (SNB-75 CNS): > 100 µM
TGI (SNB-78 CNS): > 100 µM
TGI (SR leukemia): 92.3 µM
TGI (SW-620 colon): > 100 µM
TGI (TK-10 renal): > 100 µM
TGI (U251 CNS): 61.3 µM
TGI (UACC-257 melanoma): 74.9 µM
TGI (UACC-62 melanoma): 25.3 µM
TGI (UO-31 renal): 57.2 µM
TGI (XF 498 CNS): 80.3 µM

— PubChem BioAssay (NCI)
